Here are results for five molecules from patent US8785655B2, “Ionic liquid solvents” (Dublin City University, priority 2009, dated 2014).

In data set [1] the test system is Klebsiella pneumoniae J 14368/08 ESBL-positive. Briefly: Screen against bacteria, MIC/IC80. The class given is cell-based. To be noted: KP-E.
The test system of a further data set is Candida krusei ATCC 6258. Briefly: In vitro antifungal activity, MIC by microdilution (NCCLS M27-A). On the technique in general: Dilution methods test growth across graded concentrations, often in twofold steps.
Data set [2] concerns Candida albicans ATCC 44859. The data set is described as above.
Data set [3] has as its system Candida lusitaniae 2446/l. The data set is described as above. The following applies: CL.
Data set [4] has as its system Candida parapsilosis ATCC 22019. The description is as above. To be noted: CP.
Another data set relates to Candida glabrata 20/l. Described as above. To be noted: CG.
Another data set has as its system Candida krusei E28. The data set is described as above.
Another data set deals with Absidia corymbifera 272. The description is as above. The following applies: AC.
The subject of data set [5] is Enterococcus sp. J 14365/08. Briefly: Screen against bacteria, MIC/IC80. The class given is cell-based. The following applies: EF.
Data set [6] deals with Staphylococcus aureus CCM 4516/08. Briefly: Screen against bacteria, MIC/IC80. The class given is cell-based. To be noted: SA.
For data set [7], the system named is Klebsiella pneumoniae D 11750/08. Briefly: Screen against bacteria, MIC/IC80. It is filed as cell-based. The following applies: KP.
In data set [8] the test system is Staphylococcus aureus H 5996/08 Methiciline-resistant. Briefly: Screen against bacteria, MIC/IC80. It is filed as cell-based. The following applies: MRSA.
The next data set deals with Escherichia coli CCM4517. Briefly: Screen against bacteria, MIC/IC80. It is filed as cell-based. To be noted: EC.
Data set [9] has as its system Trichophyton mentagrophytes 445. Briefly: In vitro antifungal activity, MIC by microdilution (NCCLS M27-A). The following applies: TM.
Procedure: (§2) In vitro antifungal activities of the compounds were evaluated on the collection of fungal strains deposited at the Department of Biological and Medical Sciences, Faculty of Pharmacy, Charles University, Czech Republic. All the isolates were maintained on Sabouraud dextrose agar prior to being tested.
(§3) Minimum inhibitory concentrations (MICs) were determined by the microdilution format of the NCCLS M27-A guidelines. […] RPMI 1640 (Sevapharma, Prague) medium supplemented with L-glutamine and buffered with 0.165 M morpholinepropanesulfonic acid to pH 7.0 was used as the test medium. The wells of the microdilution tray contained 100 μl of the RPMI 1640 medium with 2-fold serial dilutions of the compounds (1000 to 0.24 μmol/l for the new compounds) and 100 μl of inoculum suspension. Fungal inoculum in RPMI 1640 was prepared to give a final concentration of 5×103±0.2 cfu·ml-1. The trays were incubated at 35° C. and MICs were read visually for filamentous fungi and photometrically for yeasts as an optical density (OD) at 540 nm after 24 h and 48 h. The MICs were defined as 80% inhibition of the growth of control. MICs were determined twice and in duplicate. The deviations from the usually obtained were no higher than the nearest concentration value up and down the dilution scale.
The subject of data set [10] is Pseudomonas aeruginosa CCM 1961. Briefly: Screen against bacteria, MIC/IC80. To be noted: PA. It is filed as cell-based.
The test system of a further data set is Candida tropicalis 156. Briefly: In vitro antifungal activity, MIC by microdilution (NCCLS M27-A). To be noted: CT.
For data set [11], the system named is Candida albicans ATCC 90028. The data set is described as above.
A further data set relates to fungi and bacteria. The class given is cell-based. How it is done:
All the 12 bromide salts and 12 octylsulfate CILs in the table below were screened against fungi and bacteria.
CILs with bromide as anion have been screened against the following Fungi and bacteria:
. […] MICs were determined twice and in duplicate.

Data set [12] has as its system Aspergillus fumigatus 231. Briefly: In vitro antifungal activity, MIC by microdilution (NCCLS M27-A). To be noted: AF.
In data set [13] the test system is Staphylococcus epidermidis H 6966/08. Briefly: Screen against bacteria, MIC/IC80. The class given is cell-based. The following applies: SE.
The subject of the next data set is Pseudomonas Putida (CP1). Briefly: Toxicity of pyridinium CILs, IC50 against bacteria strains. The following applies: read-out: IC50 values. The class given is cell-based. As to the method:
(§1) KG 2013 and KG 2015 screened against 5 bacteria strains: Pseudomonas Putida (CP1), Pseudomonas Putida (KT2440), Escherichia Coli, Bacillus Subtilis, and Pseudomonas Fluorescens. KG 1043 screened against 4 strains Pseudomonas Putida (CP1), Pseudomonas Putida (KT2440), Escherichia Coli, and Pseudomonas Fluorescens. All 3 pyridinium ionic liquids have low antimicrobial toxicity (IC50>1 mM).

For the next data set, the system named is Pseudomonas Fluorescens. Described as above. The class given is cell-based. To be noted: read-out: IC50 values. How it is done: as §1
The subject of data set [14] is Pseudomonas Putida (KT2440). Described as above. It is filed as cell-based. To be noted: read-out: IC50 values. How it is done: as §1
The subject of a further data set is Escherichia Coli. The description is as above. It is filed as cell-based. The following applies: read-out: IC50 values. As to the method: as §1
The subject of the next data set is Bacillus Subtilis. The description is as above. It is filed as cell-based. To be noted: read-out: IC50 values. How it is done: as §1

Where a name gives a salt, the structure may show the parent alone. Read-outs that look alike come from different tables or passages of the source. Some results are limits rather than exact numbers.

Procedure for Absidia corymbifera 272: as §2, §3
Procedure for Candida tropicalis 156: as §2, §3

As to `CCCCCCCCOS(=O)(=O)[O-].CCCCCOC(=O)C(OC(=O)Cn1cc[n+](C)c1)c1ccccc1` (centres unmarked) [KG304, RS-3-methyl-1-[1-(pentoxycarbonyl)-1-phenylmethoxycarbonylmethyl]imidazolium octyl sulphate], the MIC/IC80 in data set [1] (24 h) is greater than 1 mM; in data set [1] (48 h), greater than 1 mM; with Candida krusei ATCC 6258 (CK1, 24 h), 1 mM; in the data set with Candida krusei ATCC 6258 (CK1, 48 h), greater than 1 mM; in data set [2] (CA1, 24 h), 1 mM; in data set [2] (CA1, 48 h) it was 1 mM. Moreover, the MIC/IC80 (in data set [3] (24 h); in [3] (48 h); in data set [4] (24 h); in data set [4] (48 h); against Candida glabrata 20/l (24 h); against Candida glabrata 20/l (48 h)) was greater than 1 mM in each case. In addition, the MIC/IC80 was greater than 1 mM with Candida krusei E28 (CK2, 24 h); greater than 1 mM against Candida krusei E28 (CK2, 48 h); 1 mM with Absidia corymbifera 272 (24 h); 1 mM in the data set on Absidia corymbifera 272 (48 h); greater than 1 mM in data set [5] (24 h); greater than 1 mM in [5] (48 h). Further, the MIC/IC80 in [6] (24 h) was 1 mM; in data set [6] (48 h) it was 1 mM; in data set [7] (24 h), greater than 1 mM; in data set [7] (48 h), greater than 1 mM; in data set [8] (24 h), greater than 1 mM; in data set [8] (48 h) it was greater than 1 mM. Also, the MIC/IC80 with Escherichia coli CCM4517 (24 h) is greater than 1 mM; against Escherichia coli CCM4517 (48 h) it was greater than 1 mM; in data set [9] (72 h), 0.25 mM; in [9] (120 h), 0.5 mM; in data set [10] (24 h) it was greater than 1 mM; in data set [10] (48 h), greater than 1 mM. Further, the MIC/IC80 in the data set on Candida tropicalis 156 (24 h) was greater than 1 mM; in the data set on Candida tropicalis 156 (48 h), greater than 1 mM; in [11] (CA2, 24 h) it was greater than 1 mM; in [11] (CA2, 48 h) it was greater than 1 mM; in data set [12] (24 h), 0.5 mM; in [12] (48 h) it was greater than 1 mM. In addition, the MIC/IC80 is 1 mM in data set [13] (24 h) and greater than 1 mM in data set [13] (48 h). In the data set with fungi and bacteria, the “toxicity / inhibition of the growth of fungi and bacteria” value was “inhibit the growth of fungi and bacteria”.
Broadly, the IC50 is the concentration that inhibits the measured activity by half. On to `CCCCOC(=O)C(OC(=O)C[n+]1ccccc1)c1ccc2c(c1)OCO2` (centres unmarked) [KG 1043, RS-[1-(butoxycarbonyl)-1-(3,4-methylenedioxyphenyl)methoxycarbonylmethyl]pyridinium bromide], for which the IC50 (in the data set on Pseudomonas Putida (CP1) (P. Putida (CP1)); with Pseudomonas Fluorescens (P. Fluorescens); in [14] (P. Putida (KT2440)); in the data set with Escherichia Coli (E. Coli)) was greater than 1 mM in each case.
As to `COC(=O)C(c1ccc(OC)c(OC)c1)[n+]1ccccc1` (centres unmarked) [KG 2013, RS-2-(3,4-dimethoxyphenyl)-2-(pyridinium) methyl acetate, chloride salt], the half-maximal inhibitory concentration (IC50) (in the data set with Bacillus Subtilis (Bacillus subtilis); in the data set on Pseudomonas Putida (CP1) (Pseudomonas putida); in the data set with Pseudomonas Fluorescens (Pseudomonas fluorescens); in data set [14] (Pseudomonas putida); with Escherichia Coli (Escherichia coli)) was greater than 1 mM each time.
With `COC(=O)C(c1ccc2c(c1)OCO2)[n+]1ccccc1` (centres unmarked) [KG 2015, RS-2-(3,4-methylendioxyphenyl)-2-(pyridinium) methyl acetate, bromide salt], the IC50 (in the data set with Bacillus Subtilis (B. Subtilis); with Pseudomonas Putida (CP1) (P. Putida (CP1)); with Pseudomonas Fluorescens (P. Fluorescens); in [14] (P. Putida (KT2440)); in the data set with Escherichia Coli (E. Coli)) was greater than 1 mM each time.
Turning to “R-3-methyl-1-[1-(pentoxycarbonyl)-1-phenylmethoxycarbonylmethyl]imidazolium octyl sulphate [KG303]”, the MIC/IC80 in [1] (24 h) was greater than 1 mM; in [1] (48 h), greater than 1 mM; with Candida krusei ATCC 6258 (CK1, 24 h), 1 mM; in the data set on Candida krusei ATCC 6258 (CK1, 48 h), greater than 1 mM; in [2] (CA1, 24 h), 0.5 mM; in data set [2] (CA1, 48 h) it was greater than 1 mM. Besides, the MIC/IC80 (in data set [3] (24 h); in data set [3] (48 h); in data set [4] (24 h); in data set [4] (48 h); against Candida glabrata 20/l (24 h); against Candida glabrata 20/l (48 h)) was greater than 1 mM in each case. For the same molecule, the MIC/IC80 is 1 mM in the data set on Candida krusei E28 (CK2, 24 h); greater than 1 mM against Candida krusei E28 (CK2, 48 h); 1 mM against Absidia corymbifera 272 (24 h); 1 mM with Absidia corymbifera 272 (48 h); greater than 1 mM in data set [5] (24 h); greater than 1 mM in data set [5] (48 h). In addition, the MIC/IC80 was 1 mM in data set [6] (24 h); 1 mM in data set [6] (48 h); greater than 1 mM in data set [7] (24 h); greater than 1 mM in data set [7] (48 h); 1 mM in data set [8] (24 h); greater than 1 mM in data set [8] (48 h). Besides, the MIC/IC80 in the data set on Escherichia coli CCM4517 (24 h) was greater than 1 mM; against Escherichia coli CCM4517 (48 h) it was greater than 1 mM; in data set [9] (72 h) it was 0.25 mM; in [9] (120 h), 0.5 mM; in data set [10] (24 h) it was greater than 1 mM; in data set [10] (48 h) it was greater than 1 mM. Further, the MIC/IC80 was greater than 1 mM against Candida tropicalis 156 (24 h); greater than 1 mM in the data set with Candida tropicalis 156 (48 h); 1 mM in data set [11] (CA2, 24 h); greater than 1 mM in [11] (CA2, 48 h); 1 mM in data set [12] (24 h); 1 mM in data set [12] (48 h). In addition, the MIC/IC80 in data set [13] (24 h) was 0.5 mM; in [13] (48 h), 1 mM. Moreover, the “toxicity / inhibition of the growth of fungi and bacteria” value in the data set with fungi and bacteria was “inhibit the growth of fungi and bacteria”.
